Assay results as given in paper PMC5739422, “Metabolomic profiling and stable isotope labelling of Trichomonas vaginalis and Tritrichomonas foetus reveal major differences in amino acid metabolism including the production of 2-hydroxyisocaproic acid, cystathionine and S-methylcysteine” (PLoS ONE, 2017).

Test system: recombinant T. vaginalis cysteine synthase (CS)
Assay: coupled assay with MGL1 and LDH, NADH oxidation at […] nm
Assay type: biochemical, Trichomonas vaginalis
Settings: 200 mM potassium phosphate pH 7.8, 37°C

| SMILES | Km (SMC synthase reaction, 10 mM OPS) [mM] | Km (cysteine synthase reaction, 3 mM Na2S) [mM] |
| --- | --- | --- |
| CS [CH3SNa] | 4.3 ± 1.6 |  |
| N[C@@H](COP(=O)(O)O)C(=O)O [OPS] |  | 18.2 ± 0.8 |
